Patent publication US8916716B2, “Process for the preparation of crystalline form II of L-malic acid salt of sunitinib” (Ranbaxy Laboratories Limited, priority 2009, dated 2014)

Assays:
[1] = described in WO 2009/104021; cited from earlier work
[2] = Moisture content by KF, initial and after storage; assay type: physicochemical
[3] = Solid form stability on storage, followed by XRPD; assay type: physicochemical; settings: storage for about 20 days or more
Experimental: The XRPD of the samples were determined by using Panalytical X'Pert Pro X-Ray Powder Diffractometer in the range 3-40 degree 2 theta and under tube voltage and current of 45 Kv and 40 mA respectively. Copper radiation of wavelength 1.54 angstrom and Xceletor detector was used.
The solvent was evaporated at a temperature of about 60° C. to about 65° C. through spray drying.

## CCN(CC)CCNC(=O)c1c(C)[nH]c(/C=C2\C(=O)Nc3ccc(F)cc32)c1C [Form II of sunitinib L-malate, butanedioic acid, hydroxy-, (2S)—, compound with N-[2-(diethylamino)ethyl]-5-[(Z)-(5-fluoro-1,2-dihydro-2-oxo-3H-indol-3-ylidine)methyl]-2,4-dimethyl-1H-pyrrole-3-carboxamide (1:1)]
[1]
  conversion to another crystal form: appears to readily convert to Form I
  hygroscopicity: hygroscopic
  thermodynamic stability: thermodynamically unstable

## CCN(CC)CCNC(=O)c1c(C)[nH]c(/C=C2\C(=O)Nc3ccc(F)cc32)c1C [Example 1, butanedioic acid, hydroxy-, (2S)—, compound with N-[2-(diethylamino)ethyl]-5-[(Z)-(5-fluoro-1,2-dihydro-2-oxo-3H-indol-3-ylidine)methyl]-2,4-dimethyl-1H-pyrrole-3-carboxamide (1:1)]
[2]; after storage at 20° C. to 25° C. for 60 days
  Moisture content by KF: 5.52%
[2]; general statement on the stable Form II
  moisture absorbed (level): not more than 2%
[2]; initial
  Moisture content by KF: 4.48%
[3]
  conversion into any other solid form on storage: does not convert into any other solid form
